Experimental data reported in ChEMBL document CHEMBL4342461, “Schwarzinicines A-G, 1,4-Diarylbutanoid-Phenethylamine Conjugates from the Leaves of Ficus schwarzii” (J Nat Prod, 2020).
pEC50, pIC50: −log10 of the molar value.

How the values were obtained:
HCT-116 = assay: Cytotoxicity against human HCT116 cells after 72 hrs by neutral red uptake assay; assay type: cell-based; details: HCT-116, 72 h
A549 = assay: Cytotoxicity against human A549 cells after 72 hrs by neutral red uptake assay; assay type: cell-based; details: A549, 72 h
MCF7 = assay: Cytotoxicity against human MCF7 cells after 72 hrs by neutral red uptake assay; assay type: cell-based; details: MCF7, 72 h
Aorta [1] = assay: Vasorelaxant activity in Sprague-Dawley rat aortic rings assessed as reduction in phenylephrine-induced contractions by measuring maximum relaxation magnitude relative to control; assay type: functional
Aorta [2] = assay: Vasorelaxant activity in Sprague-Dawley rat aortic rings assessed as reduction in phenylephrine-induced contractions; assay type: functional, tissue-based

SMILES | pIC50 (HCT-116) | pIC50 (A549) | pIC50 (MCF7) | Emax (Aorta [1]) | Activity (Aorta [2]) | pEC50 (Aorta [2])
CC[C@]1(O)C[C@@H]2CN(CCc3c([nH]c4ccccc34)[C@@](C(=O)OC)(c3cc4c(cc3OC)N(C)[C@H]3[C@@](O)(C(=O)OC)[C@H](OC(C)=O)[C@]5(CC)C=CCN6CC[C@]43[C@@H]65)C2)C1 [VINBLASTINE] | 9.30 | 8.00 | 9.00 | – | – | –
COc1ccc(CCC(Cc2ccc(OC)c(OC)c2)NCCc2cc(OC)c3c(c2)OCO3)cc1OC (stereo not drawn) | – | – | – | 116% | Dose-dependent effect | 5.68
CC(CCc1ccc(O)cc1)NCCc1ccc(O)c(O)c1 (stereo not drawn) [DOBUTAMINE] | – | – | – | 92% | – | 5.60
COc1ccc(CCC(Cc2ccc(OC)c(OC)c2)NCCc2ccc3c(c2)OCO3)cc1OC (stereo not drawn) | – | – | – | 120% | Dose-dependent effect | 5.73
COc1ccc(CCNC(CCc2ccc(OC)c(OC)c2)Cc2ccc(OC)c(OC)c2)cc1OC (stereo not drawn) | < 5.00 | < 5.00 | < 5.00 | 119% | Dose-dependent effect | 5.70
COc1ccc(CCC(Cc2ccc(OC)c(OC)c2)N(C)CCc2ccc(OC)c(OC)c2)cc1OC (stereo not drawn) | < 5.00 | < 5.00 | < 5.00 | 106% | Dose-dependent effect | 6.02
